Results published in patent publication US10647725B2, “Anti-infective 2-aminothiophenes” (priority 2016, dated 2020).
Converted amounts (≈) assume the structure as drawn.

Test system: Mtb strains INH-R1, INH-R2, RIF-R1, RIF-R2, FQ-R1
Experiment: microbe, parasite or virus in culture
Assay type: cell-based
Conditions: Mycobacterium tuberculosis; read-out: MIC against resistant isolates

## CCOC(=O)c1c(NC(=O)c2c(F)c(F)c(F)c(F)c2F)sc2c1CCN(CC)C2 [4{3,3,0}, ethyl 6-ethyl-2-(perfluorobenzamido)-4,5,6,7-tetrahydrothieno[2,3-c]pyridine-3-carboxylate]
  MIC: 0.2 to 0.44 µM (≈ 0.0897 to 0.197 µg/mL)
